Source: patent publication US10722475B2, “Stealth nanocapsules for protein delivery” (THE REGENTS OF THE UNIVERSITY OF CALIFORNIA, priority 2014, dated 2020)
Blank lines part the entries; values can stand above or below the compound they belong to.

Columns and labels:
[1] = system: native glucose oxidase (GOx); experiment: Activity assay, HRP-coupled oxidation rate of TMB with D-gluocose; format: biochemical
Procedure: (§6) The activity of native GOx, pMPC-nGOx, native AOx, and pMPC-nAOx were determined with a similar method. Briefly, the initial reaction rates were determined by monitoring the oxidation rates of TMB of GOx and AOx when incubating with the assay solutions with different concentrations of substrates, respectively. For native GOx and pMPC-nGOx, the assay solutions were prepared by mixing TMB (0.5 mM), native HRP (0.001 mg/mL), and different amount of D-gluocose (0.005%, 0.010%, 0.015%, 0.020%, 0.030%, 0.040%, w/v) in 0.1 M phosphate buffer (pH 7.0). […] The measurements were achieved by monitoring the A655 of the reaction solutions during the incubation of 1 μL of native enzyme or pMPC-nProtein (0.5 mg/mL for native GOx and pMPC-nGOx, 1 mg/mL for native AOx and pMPC-nAOx) with their corresponding assay solution.

[2] = system: pMPC-nGOx (glucose oxidase encapsulated in a pMPC nanocapsule); experiment: as above; format: biochemical
Procedure: as §6

[3] = target: T1, native horseradish peroxidase (HRP) (Armoracia rusticana, UniProt P00433); experiment: Activity assay, oxidation rate of TMB with H2O2 as substrate; format: biochemical
T1 construct: H2O2 substrate with TMB
T1 sequence (P00433 31-338): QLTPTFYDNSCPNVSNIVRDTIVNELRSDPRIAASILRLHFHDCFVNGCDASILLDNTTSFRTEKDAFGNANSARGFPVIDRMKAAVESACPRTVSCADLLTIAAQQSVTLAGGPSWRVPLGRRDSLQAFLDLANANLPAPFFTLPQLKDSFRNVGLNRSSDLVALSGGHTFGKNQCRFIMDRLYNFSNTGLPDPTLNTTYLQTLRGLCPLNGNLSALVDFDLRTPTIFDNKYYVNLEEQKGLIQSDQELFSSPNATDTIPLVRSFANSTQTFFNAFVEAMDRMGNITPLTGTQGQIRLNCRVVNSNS

[4] = system: pMPC-nHRP (horseradish peroxidase encapsulated in a pMPC nanocapsule)
From the text: (§1) To verify this, four enzymes, including horseradish peroxidase (HRP), glucose oxidase (GOx), uricase (UOx), and alcohol oxidase (AOx), were encapsulated with the same method, and their enzymatic activities were compared with their native counterparts, respectively.
(§2) After acryloxylation, protein was encapsulated with pMPC using a in situ polymerization method. For the polymerization, 2-Methacryloyloxyethyl phosphorylcholine (MPC) and bis-methacrylamide (BIS) were first prepared as 10% (w/v) stock solution in DI-water and anhydrous DMSO, respectively. The final protein concentration was tuned to 1 mg/mL by diluting with phosphate buffer (50 mM, pH 7.0). Polymerization was initiated by the addition of ammonium persulfate (APS) and tetramethylethylenediamine (TEMED) and kept at room temperature for 2 h. After the polymerization, the solution was dialyzed against PBS to remove unreacted monomers and by-products. The detailed synthesis parameters of pMPC-nEGFP, pMPC-nOVA, pMPC-nHRP, pMPC-nGOx, pMPC-nUOx, pMPC-nAOx, pMPC-nTf, and pMPC-nBSA were listed in Table 5.
(§3) The activity of pMPC-nHRP and native HRP were determined by monitoring the oxidation rate of 3,3′,5,5′-tetramethylbenzidine (TMB) using hydrogen peroxide (H2O2) as the substrate. Briefly, a series of H2O2 stock solutions with concentrations of 0.001%, 0.002%, 0.003%, 0.004%, 0.006%, 0.008% (w/v) was prepared by diluting a 50% H2O2 (w/v) with 0.1 M acetate buffer (pH 5.01) with 0.5 mM TMB. After mixing 1 mL of the substrate solution with 1 μL of pMPC-nHRP (0.1 mg/mL) or native HRP, the absorbance at 655 nm (A655) of the reaction solution was monitored with a UV-Vis spectrometer for 3 min. The absorption curve was plotted versus time and ΔA655/min from the linear portion of the curve was calculated. The activity assays were repeated with a series of concentrations of substrate to get the catalytic rates to obtain KM^app and kcat^app by the Lineweaver—Burk plot.

native uricase (UOx) = experiment: Activity assay, decrease of A290 with urate; format: biochemical
From the text: (§4) The initial rates were achieved by plotting the absorption at 290 nm versus time and calculating the ΔA290/min from the linear portion of the curve.

[5] = system: pMPC-nUOx (uricase encapsulated in a pMPC nanocapsule); experiment: Activity assay, decrease of A290 with urate; format: biochemical
From the text: as §4

[6] = system: native alcohol oxidase (AOx)
Procedure: as §1, §3
(§5) The activity of native GOx, pMPC-nGOx, native AOx, and pMPC-nAOx were determined with a similar method. Briefly, the initial reaction rates were determined by monitoring the oxidation rates of TMB of GOx and AOx when incubating with the assay solutions with different concentrations of substrates, respectively. For native GOx and pMPC-nGOx, the assay solutions were prepared by mixing TMB (0.5 mM), native HRP (0.001 mg/mL), and different amount of D-gluocose (0.005%, 0.010%, 0.015%, 0.020%, 0.030%, 0.040%, w/v) in 0.1 M phosphate buffer (pH 7.0). For native AOx and pMPC-nAOx, the assay solutions were composed by TMB (0.5 mM), native HRP (0.001 mg/mL), and different amount of ethanol (0.0025%, 0.005%, 0.0075%, 0.010%, 0.020%, 0.030%, w/v) in 0.1 M phosphate buffer (pH 7.0). The measurements were achieved by monitoring the A655 of the reaction solutions during the incubation of 1 μL of native enzyme or pMPC-nProtein (0.5 mg/mL for native GOx and pMPC-nGOx, 1 mg/mL for native AOx and pMPC-nAOx) with their corresponding assay solution.

[7] = system: pMPC-nAOx (alcohol oxidase encapsulated in a pMPC nanocapsule)
From the text: as §1, §2, §3
as §5, with “The measurements were achieved by monitoring the A655 of the reaction solutions during the incubation of 1 μL of native enzyme or pMPC-nProtein (0.5 mg/mL for native GOx and pMPC-nGOx, 1 mg/mL for native AOx and pMPC-nAOx) with their corresponding assay solution.” left out

SMILES: OC[C@H]1OC(O)[C@H](O)[C@@H](O)[C@@H]1O (stereo partly drawn) [D-gluocose]
Kcat^app/KM^app relative to native ([1]; native GOx = 100%): 100 ± 34.5%
kcat^app ([1]; native GOx, 0.1 M phosphate buffer pH 7.0, 0.5 mM TMB, HRP 0.001 mg/mL): 87.9 s⁻¹
Km ([1]; native GOx, 0.1 M phosphate buffer pH 7.0, 0.5 mM TMB, HRP 0.001 mg/mL, read-out: KM^app): 18 ± 6.21 mM
Kcat^app/KM^app ([1]; native GOx, pH 7.0): 4883 ± 1684 M⁻¹ s⁻¹
Kcat^app/KM^app relative to native ([2]; pMPC-nGOx vs native GOx): 73.7 ± 31.1%
kcat^app ([2]; pMPC-nGOx, 0.1 M phosphate buffer pH 7.0, 0.5 mM TMB, HRP 0.001 mg/mL): 77.6 s⁻¹
Km ([2]; pMPC-nGOx, 0.1 M phosphate buffer pH 7.0, 0.5 mM TMB, HRP 0.001 mg/mL, read-out: KM^app): 21.6 ± 6.7 mM
Kcat^app/KM^app ([2]; pMPC-nGOx, pH 7.0): 3600 ± 1119 M⁻¹ s⁻¹

SMILES: OO [H2O2, hydrogen peroxide]
Kcat^app/KM^app relative to native ([3]; native HRP = 100%): 100 ± 22.7%
kcat^app ([3]; native HRP, 0.1 M acetate buffer pH 5.01, 0.5 mM TMB, Lineweaver-Burk): 403 s⁻¹
Kcat^app/KM^app relative to native ([4]; pMPC-nHRP vs native HRP): 91.1 ± 28.1%
kcat^app ([4]; pMPC-nHRP, 0.1 M acetate buffer pH 5.01, 0.5 mM TMB, Lineweaver-Burk): 480 s⁻¹
Kcat^app/KM^app ([4]; pMPC-nHRP, pH 5.01, 0.5 mM TMB): 3.9669e+06 ± 1.1147e+06 M⁻¹ s⁻¹
Km ([4]; read-out: KM^app, pMPC-nHRP, 0.1 M acetate buffer pH 5.01, 0.5 mM TMB, Lineweaver-Burk): 0.121 ± 0.034 mM

Kcat^app/KM^app relative to native (native uricase (UOx); native UOx = 100%): 100 ± 7.7%
kcat^app (native uricase (UOx); native UOx, 0.1 M borate buffer pH 8): 3.36 s⁻¹
Km (native uricase (UOx); native UOx, 0.1 M borate buffer pH 8, read-out: KM^app): 0.0219 ± 0.0017 mM
Kcat^app/KM^app (native uricase (UOx); native UOx, pH 8): 153400 ± 11800 M⁻¹ s⁻¹
Kcat^app/KM^app relative to native ([5]; pMPC-nUOx vs native UOx): 90.4 ± 16.5%
kcat^app ([5]; pMPC-nUOx, 0.1 M borate buffer pH 8): 3.59 s⁻¹
Km ([5]; pMPC-nUOx, 0.1 M borate buffer pH 8, read-out: KM^app): 0.0259 ± 0.0043 mM
Kcat^app/KM^app ([5]; pMPC-nUOx, pH 8): 138600 ± 22900 M⁻¹ s⁻¹
SMILES: O=c1[nH]c(=O)c2[nH]c(=O)[nH]c2[nH]1 [urate]

Kcat^app/KM^app relative to native ([6]; native AOx = 100%): 100 ± 23.61%
kcat^app ([6]; native AOx, 0.1 M phosphate buffer pH 7.0, 0.5 mM TMB, HRP 0.001 mg/mL): 18.8 s⁻¹
Kcat^app/KM^app ([6]; native AOx, pH 7.0): 6047 ± 1428 M⁻¹ s⁻¹
Km ([6]; read-out: KM^app, native AOx, 0.1 M phosphate buffer pH 7.0, 0.5 mM TMB, HRP 0.001 mg/mL): 3.11 ± 0.72 mM
Kcat^app/KM^app relative to native ([7]; pMPC-nAOx vs native AOx): 75.6 ± 28.00%
kcat^app ([7]; pMPC-nAOx, 0.1 M phosphate buffer pH 7.0, 0.5 mM TMB, HRP 0.001 mg/mL): 23.4 s⁻¹
Kcat^app/KM^app ([7]; pMPC-nAOx, pH 7.0): 4570 ± 1279 M⁻¹ s⁻¹
Km ([7]; read-out: KM^app, pMPC-nAOx, 0.1 M phosphate buffer pH 7.0, 0.5 mM TMB, HRP 0.001 mg/mL): 5.12 ± 1.43 mM
SMILES: CCO [ethanol]
